The subject of this test is MV-4-11 cells. In words: Gene expression microarray analysis (Affymetrix PrimeView) and GSEA. The format is cell-based, human. The following applies: ProbeSet 11718701_a_at; LIST B. Set-up: RFU PODN (11730768_x_at) / Fold change /veh PODN (11730768_x_at) / RFU LINC00158 (11744669_a_at) / Fold change /veh LINC00158 (11744669_a_at) / RFU DUSP10 (11751237_a_at) / Fold change /veh DUSP10 (11751237_a_at) / RFU ID3 (11757404_x_at) / Fold change /veh ID3 (11757404_x_at) / RFU PLEKHG5 (11737974_s_at) / Fold change /veh PLEKHG5 (11737974_s_at) / RFU LRRC4B (11730491_at) / Fold change /veh LRRC4B (11730491_at) / RFU GIMAP4 (11747438_a_at) / Fold change /veh GIMAP4 (11747438_a_at) / RFU KRT8 (11758183_x_at) / Fold change /veh KRT8 (11758183_x_at) / RFU CNN1 (11734310_a_at) / Fold change /veh CNN1 (11734310_a_at) / RFU VPS37D (11726825_at) / Fold change /veh VPS37D (11726825_at) / RFU C10orf10 (11716522_x_at) / Fold change /veh C10orf10 (11716522_x_at) / RFU KIR2DL2 /// KIR2DL4 /// KIR2DL5A /// KIR2DL5B /// KIR2DS1 /// KIR2DS2 /// KIR2DS3 /// KIR2DS4 /// KIR3DL3 /// KIR3DL3 /// KIR3DS1 (11738374_at) / Fold change /veh KIR2DL2 /// KIR2DL4 /// KIR2DL5A /// KIR2DL5B /// KIR2DS1 /// KIR2DS2 /// KIR2DS3 /// KIR2DS4 /// KIR3DL3 /// KIR3DL3 /// KIR3DS1 (11738374_at) / RFU C1QL1 (11718748_at) / Fold change /veh C1QL1 (11718748_at) / RFU TMPRSS4 (11747572_a_at) / Fold change /veh TMPRSS4 (11747572_a_at) / RFU HAMP (11756126_x_at) / Fold change /veh HAMP (11756126_x_at) / RFU RNFT2 (11725882_a_at) / Fold change /veh RNFT2 (11725882_a_at) / RFU NR4A2 (11747474_a_at) / Fold change /veh NR4A2 (11747474_a_at) / RFU ABCC12 (11746883_a_at) / Fold change /veh ABCC12 (11746883_a_at) / RFU TMEM136 (11760407_x_at) / Fold change /veh TMEM136 (11760407_x_at) / RFU CLDN22 /// WWC2 (11732394_at) / Fold change /veh CLDN22 /// WWC2 (11732394_at) / RFU HLA-DPB1 (11760878_x_at) / Fold change /veh HLA-DPB1 (11760878_x_at) / RFU SPINT1 (11716480_a_at) / Fold change /veh SPINT1 (11716480_a_at) / RFU GAP43 (11754022_s_at) / Fold change /veh GAP43 (11754022_s_at) / RFU A4GNT (11735810_at) / Fold change /veh A4GNT (11735810_at) / RFU PRB3 (11715151_x_at) / Fold change /veh PRB3 (11715151_x_at) / RFU TUBB4B (11761932_at) / Fold change /veh TUBB4B (11761932_at) / RFU CAPN14 (11732068_a_at) / Fold change /veh CAPN14 (11732068_a_at) / RFU TMCC2 (11721928_a_at) / Fold change /veh TMCC2 (11721928_a_at) / RFU IRGQ (11745062_a_at) / Fold change /veh IRGQ (11745062_a_at) / RFU FAM174B (11720279_a_at) / Fold change /veh FAM174B (11720279_a_at) / RFU TMPRSS4 (11748680_a_at) / Fold change /veh TMPRSS4 (11748680_a_at) / RFU FAM212B (11763350_a_at) / Fold change /veh FAM212B (11763350_a_at) / RFU PLEKHG5 (11743358_a_at) / Fold change /veh PLEKHG5 (11743358_a_at) / RFU ZSCAN30 (11745921_a_at) / Fold change /veh ZSCAN30 (11745921_a_at) / RFU CMKLR1 (11741424_a_at) / Fold change /veh CMKLR1 (11741424_a_at) / RFU LOC101060620 /// MAPK8IP1 (11723275_at) / Fold change /veh LOC101060620 /// MAPK8IP1 (11723275_at) / RFU SPTSSB (11747773_x_at) / Fold change /veh SPTSSB (11747773_x_at) / RFU PRSS12 (11739890_at) / Fold change /veh PRSS12 (11739890_at) / RFU BIN1 (11741810_x_at) / Fold change /veh BIN1 (11741810_x_at) / RFU WNT11 (11732464_a_at) / Fold change /veh WNT11 (11732464_a_at) / RFU C10orf10 (11716521_a_at) / Fold change /veh C10orf10 (11716521_a_at) / RFU C5orf56 (11738089_at) / Fold change /veh C5orf56 (11738089_at) / RFU CYB561 (11721691_x_at) / Fold change /veh CYB561 (11721691_x_at) / RFU ANKRD19P (11752326_a_at) / Fold change /veh ANKRD19P (11752326_a_at) / RFU OR2T12 /// OR2T33 /// OR2T8 (11738714_s_at) / Fold change /veh OR2T12 /// OR2T33 /// OR2T8 (11738714_s_at) / RFU VCAN (11748164_a_at) / Fold change /veh VCAN (11748164_a_at) / RFU JSRP1 (11732532_at) / Fold change /veh JSRP1 (11732532_at) / RFU KRTAP10-11 (11738290_x_at) / Fold change /veh KRTAP10-11 (11738290_x_at) / RFU MYO3A (11730013_a_at) / Fold change /veh MYO3A (11730013_a_at) / RFU EBF3 (11725865_a_at) / Fold change /veh EBF3 (11725865_a_at) / RFU CAMK2N1 (11719241_x_at) / Fold change /veh CAMK2N1 (11719241_x_at) / RFU C5orf56 (11738088_a_at) / Fold change /veh C5orf56 (11738088_a_at) / RFU OLFML3 (11715873_a_at) / Fold change /veh OLFML3 (11715873_a_at) / RFU LOC100653217 /// NTM (11731650_a_at) / Fold change /veh LOC100653217 /// NTM (11731650_a_at) / RFU MAPK11 (11762145_a_at) / Fold change /veh MAPK11 (11762145_a_at) / RFU FIZ1 (11724087_x_at) / Fold change /veh FIZ1 (11724087_x_at) / RFU OASL (11726364_x_at) / Fold change /veh OASL (11726364_x_at) / RFU SOX15 (11748057_x_at) / Fold change /veh SOX15 (11748057_x_at) / RFU CD79A (11719716_a_at) / Fold change /veh CD79A (11719716_a_at) / RFU HIST1H1D (11736915_at) / Fold change /veh HIST1H1D (11736915_at) / RFU CASKIN2 (11723855_a_at) / Fold change /veh CASKIN2 (11723855_a_at) / RFU LOC730098 (11760151_x_at) / Fold change /veh LOC730098 (11760151_x_at) / RFU OR4N2 (11742367_at) / Fold change /veh OR4N2 (11742367_at) / RFU PRRT2 (11749266_a_at) / Fold change /veh PRRT2 (11749266_a_at) / RFU SNX32 (11753110_a_at) / Fold change /veh SNX32 (11753110_a_at) / RFU CDHR5 (11726645_a_at) / Fold change /veh CDHR5 (11726645_a_at) / RFU RCAN1 (11760418_a_at) / Fold change /veh RCAN1 (11760418_a_at) / RFU FAM167A (11723789_a_at) / Fold change /veh FAM167A (11723789_a_at) / RFU FAM26E (11764081_at) / Fold change /veh FAM26E (11764081_at) / RFU ISYNA1 (11749810_s_at) / Fold change /veh ISYNA1 (11749810_s_at) / RFU ACY1 (11761880_at) / Fold change /veh ACY1 (11761880_at) / RFU 11764098_at / Fold change /veh 11764098_at / RFU SAMD14 (11745864_x_at) / Fold change /veh SAMD14 (11745864_x_at) / RFU NPB (11741838_a_at) / Fold change /veh NPB (11741838_a_at) / RFU TMPRSS6 (11731388_a_at) / Fold change /veh TMPRSS6 (11731388_a_at) / RFU KRTAP10-2 (11738614_at) / Fold change /veh KRTAP10-2 (11738614_at) / RFU ARHGAP8 /// PRR5-ARHGAP8 (11727945_x_at) / Fold change /veh ARHGAP8 /// PRR5-ARHGAP8 (11727945_x_at) / RFU KRTAP5-7 /// NADSYN1 (11734609_at) / Fold change /veh KRTAP5-7 /// NADSYN1 (11734609_at) / RFU RASL12 (11751679_a_at) / Fold change /veh RASL12 (11751679_a_at) / RFU CDKN2B (11736163_a_at) / Fold change /veh CDKN2B (11736163_a_at) / RFU PRF1 (11729649_at) / Fold change /veh PRF1 (11729649_at) / RFU, ZNF638 /// ZNF638-IT1 / Fold change vs veh, ZNF638 /// ZNF638-IT1 / RFU, PANK3 / Fold change vs veh, PANK3 / RFU, SH3YL1 / Fold change vs veh, SH3YL1 / RFU, ZEB2 / Fold change vs veh, ZEB2 / RFU, NRIP1 / Fold change vs veh, NRIP1 / RFU, PTTG1IP / Fold change vs veh, PTTG1IP / RFU, CAPN2 / Fold change vs veh, CAPN2 / RFU, MED14 / Fold change vs veh, MED14 / RFU, SNORA58 / Fold change vs veh, SNORA58 / RFU, C1orf63 / Fold change vs veh, C1orf63 / RFU, LRRFIP1 / Fold change vs veh, LRRFIP1 / RFU, NDUFAF7 / Fold change vs veh, NDUFAF7 / RFU, SLC12A2 / Fold change vs veh, SLC12A2 / RFU, IBTK / Fold change vs veh, IBTK / RFU, ESF1 / Fold change vs veh, ESF1 / Fold change vs veh, TMEM50B / RFU, TAOK1 / Fold change vs veh, TAOK1 / RFU, ACBD3 / Fold change vs veh, ACBD3 / RFU, TMA16 / Fold change vs veh, TMA16 / RFU, RWDD3 / Fold change vs veh, RWDD3 / RFU, BCAT1 / Fold change vs veh, BCAT1 / RFU, EDEM3 / Fold change vs veh, EDEM3 / RFU, TMEM33 / Fold change vs veh, TMEM33 / RFU, WDR75 / Fold change vs veh, WDR75 / RFU, AHCTF1 / Fold change vs veh, AHCTF1 / RFU, TFRC / Fold change vs veh, TFRC / RFU, ZDHHC17 / Fold change vs veh, ZDHHC17 / RFU, NOM1 / Fold change vs veh, NOM1 / RFU, ARL8B / Fold change vs veh, ARL8B / RFU, ZBTB11 / Fold change vs veh, ZBTB11 / RFU, TAMM41 / Fold change vs veh, TAMM41 / RFU, KIAA1704 /// LOC100996395 / Fold change vs veh, KIAA1704 /// LOC100996395 / RFU, ING1 / Fold change vs veh, ING1 / RFU, TRMT61B / Fold change vs veh, TRMT61B / RFU, FUBP3 / Fold change vs veh, FUBP3 / RFU, TP53 / Fold change vs veh, TP53 / RFU, TNKS2 / Fold change vs veh, TNKS2 / RFU, ZFP14 / Fold change vs veh, ZFP14 / RFU, ACTR2 / Fold change vs veh, ACTR2 / RFU, PPP3R1 / Fold change vs veh, PPP3R1 / RFU, PIK3R1 / Fold change vs veh, PIK3R1 / RFU, HNRNPA1 / Fold change vs veh, HNRNPA1 / RFU, RNF170 / Fold change vs veh, RNF170 / RFU, ZNF28 / Fold change vs veh, ZNF28 / RFU, RNGTT / Fold change vs veh, RNGTT / RFU, OGT / Fold change vs veh, OGT / RFU, BRD1 / Fold change vs veh, BRD1 / RFU, MARS / Fold change vs veh, MARS / RFU, ZNF655 / Fold change vs veh, ZNF655 / RFU, FAHD1 / Fold change vs veh, FAHD1 / RFU, BDP1 / Fold change vs veh, BDP1 / RFU, LRRCC1 / Fold change vs veh, LRRCC1 / RFU, ARID1A / Fold change vs veh, ARID1A / RFU, ZNF146 / Fold change vs veh, ZNF146 / RFU, ZNF330 / Fold change vs veh, ZNF330 / RFU, GPN3 / Fold change vs veh, GPN3 / RFU, C9orf123 / Fold change vs veh, C9orf123 / RFU, N4BP2L2 / Fold change vs veh, N4BP2L2 / RFU, ARFIP1 / Fold change vs veh, ARFIP1 / RFU, FAM179B / Fold change vs veh, FAM179B / RFU, BCL10 / Fold change vs veh, BCL10 / RFU, UHRF1BP1L / Fold change vs veh, UHRF1BP1L / RFU, BET1 / Fold change vs veh, BET1 / RFU, CNOT2 / Fold change vs veh, CNOT2 / RFU, ZNF268 / Fold change vs veh, ZNF268 / Fold change vs veh, ZNF507 / RFU, DGCR2 / Fold change vs veh, DGCR2 / RFU, WDSUB1 / Fold change vs veh, WDSUB1 / Fold change vs veh, HSP90B1 /// MIR3652 / RFU, ADSS / Fold change vs veh, ADSS / RFU, GK / Fold change vs veh, GK / RFU, ZNF148 / Fold change vs veh, ZNF148 / RFU, TAF9 / Fold change vs veh, TAF9 / RFU, SLC1A5 / Fold change vs veh, SLC1A5 / RFU, SLMO2 / Fold change vs veh, SLMO2 / RFU, ABCC4 / Fold change vs veh, ABCC4 / RFU, LOC101060439 /// RAP1B / Fold change vs veh, LOC101060439 /// RAP1B / RFU, RFX7 / Fold change vs veh, RFX7 / RFU, GTPBP10 / Fold change vs veh, GTPBP10 / RFU, CNEP1R1 / Fold change vs veh, CNEP1R1 / RFU, BIVM-ERCC5 /// ERCC5 / Fold change vs veh, BIVM-ERCC5 /// ERCC5 / RFU, ILF3 / Fold change vs veh, ILF3 / RFU 11762660_at / Fold change /veh 11762660_at / RFU VCAN (11757783_s_at) / Fold change /veh VCAN (11757783_s_at) / RFU DDX43 (11728927_at) / Fold change /veh DDX43 (11728927_at) / RFU KRT8 (11758188_x_at) / Fold change /veh KRT8 (11758188_x_at) / RFU NKD1 (11759106_at) / Fold change /veh NKD1 (11759106_at) / RFU SRD5A1 (11742802_a_at) / Fold change /veh SRD5A1 (11742802_a_at) / RFU TPSAB1 /// TPSB2 (11721975_s_at) / Fold change /veh TPSAB1 /// TPSB2 (11721975_s_at) / RFU GSTM3 (11746129_a_at) / Fold change /veh GSTM3 (11746129_a_at) / RFU IL23R (11737362_x_at) / Fold change /veh IL23R (11737362_x_at) / RFU TMEM51 (11727254_a_at) / Fold change /veh TMEM51 (11727254_a_at) / RFU PIWIL2 (11732686_x_at) / Fold change /veh PIWIL2 (11732686_x_at) / RFU ORM1 (11744905_x_at) / Fold change /veh ORM1 (11744905_x_at) / RFU CCDC152 (11743942_at) / Fold change /veh CCDC152 (11743942_at) / RFU ECM1 (11717891_a_at) / Fold change /veh ECM1 (11717891_a_at) / RFU IL23R (11748794_a_at) / Fold change /veh IL23R (11748794_a_at) / RFU TNFAIP8L3 (11732012_x_at) / Fold change /veh TNFAIP8L3 (11732012_x_at) / RFU MBOAT4 (11741988_at) / Fold change /veh MBOAT4 (11741988_at) / RFU 11764193_at / Fold change /veh 11764193_at / RFU TMEM53 (11763286_at) / Fold change /veh TMEM53 (11763286_at) / RFU MAGEB2 (11727129_at) / Fold change /veh MAGEB2 (11727129_at) / RFU TMEM200A (11744735_a_at) / Fold change /veh TMEM200A (11744735_a_at) / RFU CCDC152 (11751479_a_at) / Fold change /veh CCDC152 (11751479_a_at) / RFU FAM211A (11726209_a_at) / Fold change /veh FAM211A (11726209_a_at) / RFU RGS16 (11746705_a_at) / Fold change /veh RGS16 (11746705_a_at) / RFU VCAN (11755009_s_at) / Fold change /veh VCAN (11755009_s_at) / RFU RHOB (11743442_s_at) / Fold change /veh RHOB (11743442_s_at) / RFU RGS16 (11720943_a_at) / Fold change /veh RGS16 (11720943_a_at) / RFU RGS16 (11720944_at) / Fold change /veh RGS16 (11720944_at) / RFU, VPS4B / Fold change vs veh, VPS4B / RFU, CREB1 / Fold change vs veh, CREB1 / RFU, DNAJC13 / Fold change vs veh, DNAJC13 / RFU, GNAQ / Fold change vs veh, GNAQ / RFU, CDK5R1 / Fold change vs veh, CDK5R1 / RFU, ZRANB3 / Fold change vs veh, ZRANB3 / RFU, CUL4A / Fold change vs veh, CUL4A / RFU, CCNY / Fold change vs veh, CCNY / RFU, UFL1 / Fold change vs veh, UFL1 / RFU, COG3 / Fold change vs veh, COG3 / RFU, DIAPH2 / Fold change vs veh, DIAPH2 / RFU, SKA2 / Fold change vs veh, SKA2 / RFU, AFF3 / Fold change vs veh, AFF3 / RFU, LMF1 / Fold change vs veh, LMF1 / RFU, IPO11 / Fold change vs veh, IPO11 / RFU, DFFB / Fold change vs veh, DFFB / RFU, FOXP1 / Fold change vs veh, FOXP1 / RFU, CARD8 / Fold change vs veh, CARD8 / RFU, STRN3 / Fold change vs veh, STRN3 / RFU, ADK / Fold change vs veh, ADK / RFU, RASSF2 / Fold change vs veh, RASSF2 / RFU, WIPF1 / Fold change vs veh, WIPF1 / RFU, LARP1B / Fold change vs veh, LARP1B / RFU, RASA1 / Fold change vs veh, RASA1 / RFU, RB1 / Fold change vs veh, RB1 / RFU, PPFIA1 / Fold change vs veh, PPFIA1 / RFU, MAT2A / Fold change vs veh, MAT2A / RFU, CCT5 / Fold change vs veh, CCT5 / RFU, WDR92 / Fold change vs veh, WDR92 / RFU, CUX1 / Fold change vs veh, CUX1 / RFU, TTC7A / Fold change vs veh, TTC7A / RFU, TMEM135 / Fold change vs veh, TMEM135 / RFU, DEPTOR / Fold change vs veh, DEPTOR / RFU, CPM / Fold change vs veh, CPM / RFU, DNAJB6 / Fold change vs veh, DNAJB6 / RFU, CACNA2D3 / Fold change vs veh, CACNA2D3 / RFU, DTX4 / Fold change vs veh, DTX4 / RFU, TFCP2 / Fold change vs veh, TFCP2 / RFU, GMCL1 /// GMCL1P1 / Fold change vs veh, GMCL1 /// GMCL1P1 / RFU, AEBP2 / Fold change vs veh, AEBP2 / RFU, SNHG1 /// SNORD22 /// SNORD25 /// SNORD26 /// SNORD27 /// SNORD28 /// SNORD29 /// SNORD31 / Fold change vs veh, SNHG1 /// SNORD22 /// SNORD25 /// SNORD26 /// SNORD27 /// SNORD28 /// SNORD29 /// SNORD31 / Fold change (Aza/veh), C12orf56 (ProbeSet 11735607_a_at) / Fold change (ACY-1035/veh), C12orf56 (ProbeSet 11735607_a_at) / Fold change (Aza/veh), FGFR1OP (ProbeSet 11751329_s_at) / Fold change (ACY-1035/veh), FGFR1OP (ProbeSet 11751329_s_at) / Fold change (Aza/veh), VPS36 (ProbeSet 11739960_a_at) / Fold change (ACY-1035/veh), VPS36 (ProbeSet 11739960_a_at) / RFU SYPL1 (11715823_x_at) / Fold change /veh SYPL1 (11715823_x_at) / RFU IGFBP7 (11715501_s_at) / Fold change /veh IGFBP7 (11715501_s_at) / RFU REEP3 (11722064_at) / Fold change /veh REEP3 (11722064_at) / RFU IGLL1 (11728026_x_at) / Fold change /veh IGLL1 (11728026_x_at): dose or concentration left out as unconfirmed.

Take `Nc1ncn([C@@H]2O[C@H](CO)[C@@H](O)[C@H]2O)c(=O)n1` [azacitidine]: the “Fold change vs veh, ARFIP1” value was determined as 1.05.

The values are drawn from PMC5218480 (PLoS ONE, 2017).
